Among the test systems are MOLT-4 leukemia; U251 CNS; SR leukemia; ACHN renal; HT29 colon; NCI-H23 lung; HOP-62 NSCLC; M14 melanoma; LOX IMVI melanoma; OVCAR-3 ovarian; K-562 leukemia; COLO 205 colon; UACC-62 melanoma; HOP-92 NSCLC; MDA-MB-435; MDA-N; MALME-3M melanoma; UACC-257 melanoma; SNB-75 CNS.
Experiment in all cases: growth of human tumour cells (NCI), 48 h

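1) Cells in 96-well plates. 2) Compound, 48 h, 5 concentrations. 3) Linear interpolation between surrounding doses. 4) Unreached endpoint = highest concentration. TGI is the concentration that stops growth completely.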 A value given as a limit tells only on which side of the number the result lay.

Turning to `CC1=NN(C(=O)CC(=O)Nc2ccccc2Cl)C(=O)C1N=Nc1ccc(C(=O)O)cc1` (centres undefined), the TGI in the assay with MOLT-4 leukemia, in the assay on U251 CNS, with SR leukemia, with ACHN renal, in the assay with HT29 colon and with NCI-H23 lung was above 100 µM in each case. Moreover, the TGI in the assay with HOP-62 NSCLC, in the assay on M14 melanoma, with LOX IMVI melanoma, with OVCAR-3 ovarian, in the assay on K-562 leukemia and in the assay with COLO 205 colon was above 100 µM each time. The TGI in the assay with UACC-62 melanoma, in the assay with HOP-92 NSCLC, in the assay with MDA-MB-435, with MDA-N, in the assay on MALME-3M melanoma and with UACC-257 melanoma was above 100 µM each time.

Take `c1ccc(C2C3=C(CCCC3)Nc3nc4cc5ccccc5cc4n32)cc1` (centres undefined): the TGI with MOLT-4 leukemia, in the assay with U251 CNS, with SR leukemia, with ACHN renal, with HT29 colon and in the assay with NCI-H23 lung was above 100 µM in each case. The TGI in the assay on M14 melanoma, with LOX IMVI melanoma, in the assay on OVCAR-3 ovarian, with K-562 leukemia, in the assay with COLO 205 colon and in the assay with UACC-62 melanoma was above 100 µM throughout. Also, the TGI in the assay on HOP-92 NSCLC, in the assay on MDA-MB-435, in the assay on MDA-N, in the assay with MALME-3M melanoma, with UACC-257 melanoma and in the assay on SNB-75 CNS was above 100 µM in each case.

Take `N[C@H]1CCN(c2c(F)cc3c(=O)c(C(=O)O)cn4c3c2Oc2cc3c(ccc5ccccc53)cc2-4)C1`: the TGI with MOLT-4 leukemia was above 100 µM; with U251 CNS it was 5.02 µM; in the assay on SR leukemia, above 100 µM; in the assay with ACHN renal, 8.06 µM; in the assay on HT29 colon, 7.34 µM; in the assay on NCI-H23 lung it was above 100 µM. Also, the TGI in the assay with HOP-62 NSCLC is above 100 µM; in the assay with M14 melanoma it was above 100 µM; in the assay with LOX IMVI melanoma, above 100 µM; in the assay on OVCAR-3 ovarian, above 100 µM; in the assay on K-562 leukemia it was above 100 µM; in the assay on COLO 205 colon, 9.28 µM. In addition, the TGI was above 100 µM in the assay on UACC-62 melanoma; 6.29 µM in the assay with HOP-92 NSCLC; above 100 µM in the assay on MDA-MB-435; above 100 µM in the assay on MDA-N; above 100 µM in the assay with MALME-3M melanoma; above 100 µM in the assay with UACC-257 melanoma.

As to `O=C1CC(CC(O)C(O)C(O)CO)CC(=O)N1` (centres undefined), the TGI in the assay with MOLT-4 leukemia, in the assay on U251 CNS, in the assay on SR leukemia, with ACHN renal, in the assay on HT29 colon and in the assay with NCI-H23 lung was above 100 µM in each case. Further, the TGI with HOP-62 NSCLC, in the assay on M14 melanoma, with LOX IMVI melanoma, with OVCAR-3 ovarian, in the assay on K-562 leukemia and with COLO 205 colon was above 100 µM in each case. Also, the TGI in the assay with HOP-92 NSCLC, in the assay with MDA-MB-435, in the assay on MDA-N, in the assay with MALME-3M melanoma, with UACC-257 melanoma and in the assay with SNB-75 CNS was above 100 µM each time.

Consider `O=C1OCC2(CO1)CC1C=CC2C1` (centres undefined), for which the TGI in the assay on MOLT-4 leukemia, in the assay with U251 CNS, in the assay on SR leukemia, in the assay with ACHN renal, in the assay on HT29 colon and with NCI-H23 lung was above 100 µM throughout. Moreover, the TGI in the assay with HOP-62 NSCLC, in the assay on M14 melanoma, with LOX IMVI melanoma, in the assay on OVCAR-3 ovarian, in the assay on K-562 leukemia and in the assay with COLO 205 colon was above 100 µM in each case. Further, the TGI in the assay with UACC-62 melanoma, with HOP-92 NSCLC, in the assay on MDA-MB-435, in the assay with MDA-N, in the assay with MALME-3M melanoma and in the assay on UACC-257 melanoma was above 100 µM in each case.

Take `COC(=O)C1=NN2c3ccccc3C(=O)OCCC2(C)C1` (centres undefined): the TGI in the assay on MOLT-4 leukemia, with U251 CNS, in the assay with SR leukemia, in the assay with ACHN renal, in the assay on HT29 colon and in the assay on NCI-H23 lung was above 100 µM each time. Further, the TGI in the assay with HOP-62 NSCLC, with LOX IMVI melanoma, in the assay on OVCAR-3 ovarian, in the assay with K-562 leukemia, in the assay on COLO 205 colon and in the assay with UACC-62 melanoma was above 100 µM each time. The TGI in the assay on HOP-92 NSCLC, with MDA-MB-435, with MDA-N, in the assay with MALME-3M melanoma and with SNB-75 CNS was above 100 µM in each case.

For the compound `COc1[nH]c(C(Cl)(Cl)Cl)c(Cl)c(=O)c1Cl`, the TGI in the assay with MOLT-4 leukemia, in the assay on U251 CNS, in the assay on SR leukemia, with ACHN renal, in the assay with HT29 colon and in the assay on NCI-H23 lung was above 100 µM throughout. Besides, the TGI in the assay with HOP-62 NSCLC, in the assay on LOX IMVI melanoma, in the assay on OVCAR-3 ovarian, with K-562 leukemia, in the assay on COLO 205 colon and in the assay with UACC-62 melanoma was above 100 µM each time. The TGI in the assay with HOP-92 NSCLC, with MDA-MB-435, with MDA-N, in the assay with MALME-3M melanoma and in the assay on UACC-257 melanoma was above 100 µM each time.

The values are drawn from PubChem BioAssay (NCI).
